From PubChem BioAssay (NCI) come the findings set out here.

Among the test systems are LOX IMVI melanoma; OVCAR-8 ovarian; A549 NSCLC; SK-MEL-2 melanoma; SK-MEL-28 melanoma; SW-620 colon; K-562 leukemia; SF-295 CNS; SK-MEL-5 melanoma; ACHN renal.
What all share (assay): inhibition of tumour cell growth, NCI panel, 48 h

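Method: 48-hour compound exposure of cells in 96-well plates, five concentrations, linear interpolation of endpoints. TGI marks complete inhibition of growth.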

On to `CCn1c(SCc2nnc(Nc3ccccc3)s2)nc2ccccc2c1=O`, for which the TGI is 25.4 µM with LOX IMVI melanoma; 5.09 µM in the experiment with OVCAR-8 ovarian; 19.3 µM in the experiment with A549 NSCLC; 32 µM in the experiment on SK-MEL-2 melanoma; 60.8 µM with SK-MEL-28 melanoma; over 68.3 µM in the experiment with SW-620 colon. The TGI is over 73.2 µM in the experiment with K-562 leukemia, 6.87 µM in the experiment on SF-295 CNS, 32.5 µM with SK-MEL-5 melanoma and 9.16 µM in the experiment on ACHN renal.
Consider `CCCC(CC)c1cc(O)c(O)cc1C(CC)CCC` (stereo not given), for which the TGI in the experiment with LOX IMVI melanoma, with OVCAR-8 ovarian, with A549 NSCLC, in the experiment on SK-MEL-2 melanoma, in the experiment on SK-MEL-28 melanoma and in the experiment on SW-620 colon was over 10 µM in each case. For the same compound, the TGI in the experiment with K-562 leukemia, in the experiment on SF-295 CNS, in the experiment on SK-MEL-5 melanoma and in the experiment with ACHN renal was over 10 µM throughout.
As for `CC(=O)NCC1OC2COC(c3ccccc3)OC2C2N=C(c3ccccc3)OC12` (stereo not given), the TGI in the experiment with LOX IMVI melanoma, in the experiment with OVCAR-8 ovarian, in the experiment on A549 NSCLC, in the experiment on SK-MEL-2 melanoma, in the experiment on SK-MEL-28 melanoma and in the experiment on SW-620 colon was over 100 µM each time. Besides, the TGI in the experiment with K-562 leukemia, in the experiment on SF-295 CNS, in the experiment on SK-MEL-5 melanoma and in the experiment with ACHN renal was over 100 µM throughout.
Regarding `Cc1cccc(=O)c([O-])c1.Cc1cccc(=O)c([O-])c1.Cc1cccc(=O)c([O-])c1.Cc1cccc(=O)c([O-])c1.[Th+4]`, the TGI with LOX IMVI melanoma was over 100 µM; in the experiment with OVCAR-8 ovarian it was over 100 µM; in the experiment on A549 NSCLC, over 100 µM; with SK-MEL-2 melanoma, 97.5 µM; in the experiment with SK-MEL-28 melanoma, over 100 µM; in the experiment with SW-620 colon, over 100 µM. Further, the TGI is over 38.6 µM in the experiment on K-562 leukemia, over 100 µM with SF-295 CNS, 31.9 µM with SK-MEL-5 melanoma and over 100 µM in the experiment on ACHN renal.
With `C=C(C)[C@@H]1CC[C@]2(C(=O)OC3OC(COC4OC(CO)C(OC5OC(C)C(O)C(O)C5O)C(O)C4O)C(O)C(O)C3O)CC[C@]3(C)[C@H](CC[C@@H]4[C@@]5(C)CC[C@H](O)[C@@](C)(CO)[C@@H]5CC[C@]43C)[C@@H]12` (stereo not given in full), the TGI in the experiment on LOX IMVI melanoma was over 8.27 µM; with OVCAR-8 ovarian, over 10 µM; with A549 NSCLC, over 10 µM; with SK-MEL-2 melanoma, 6.22 µM; with SK-MEL-28 melanoma, over 10 µM; with SW-620 colon, over 10 µM. Besides, the TGI is over 6.45 µM in the experiment on K-562 leukemia, over 8.59 µM in the experiment on SF-295 CNS, over 8.46 µM in the experiment with SK-MEL-5 melanoma and over 10 µM in the experiment on ACHN renal.
